Among the data in ChEMBL document CHEMBL3351930, “Synthesis of novel chiral TBBt derivatives with hydroxyl moiety. Studies on inhibition of human protein kinase CK2α and cytotoxicity properties” (Eur J Med Chem, 2014) are Activity and viability values, retold here.

Assay [1] deals with Casein kinase II subunit alpha (Homo sapiens) (UniProt P68400). The experiment in a line: Inhibition of human CK2alpha using RRRDDDSDDD peptide substrate at 20 uM by P81 filter-binding assay. The arrangement: scale not given: the % may be the effect or the level left.
The target is the same in assay [2]. In words: Inhibition of human CK2alpha using RRRDDDSDDD peptide substrate at 200 uM by P81 filter-binding assay. The arrangement: scale not given: the % may be the effect or the level left.
Assay [3] has as its system MCF7. In words: Anticancer activity against human MCF7 cells assessed as cell viability at 12.5 uM after 24 hrs by MTT assay. The assay is classed as functional. The settings on record: MCF7, 24 h, read-out: Activity. (In general: Tetrazolium assays rely on reduction of a dye to a coloured formazan, in cell work by metabolically active cells.)
Assay [4] has as its system MCF7. The experiment in a line: Anticancer activity against human MCF7 cells assessed as cell viability at 25 uM after 24 hrs by MTT assay. The assay is classed as functional. The following applies: MCF7, 24 h, read-out: Activity.
Assay [5] concerns MCF7. The experiment in a line: Anticancer activity against human MCF7 cells assessed as cell viability at 50 uM after 24 hrs by MTT assay. The assay is classed as functional. The following applies: MCF7, 24 h, read-out: Activity.
The subject of assay [6] is MCF7. In words: Anticancer activity against human MCF7 cells assessed as cell viability at 100 uM after 24 hrs by MTT assay. The assay is classed as functional. The settings on record: MCF7, 24 h, read-out: Activity.
In assay [7] the test system is MCF7. In words: Anticancer activity against human MCF7 cells assessed as cell viability at 12.5 uM after 48 hrs by MTT assay. In kind it is functional. The following applies: MCF7, 48 h, read-out: Activity.
Assay [8] deals with MCF7. The experiment in a line: Anticancer activity against human MCF7 cells assessed as cell viability at 25 uM after 48 hrs by MTT assay. In kind it is functional. The following applies: MCF7, 48 h, read-out: Activity.
For assay [9], the system named is MCF7. The experiment in a line: Anticancer activity against human MCF7 cells assessed as cell viability at 50 uM after 48 hrs by MTT assay. In kind it is functional. The following applies: MCF7, 48 h, read-out: Activity.
The subject of assay [10] is MCF7. In words: Anticancer activity against human MCF7 cells assessed as cell viability at 100 uM after 48 hrs by MTT assay. The assay is classed as functional. The settings on record: MCF7, 48 h, read-out: Activity.
The test system of assay [11] is CCRF-CEM. The experiment in a line: Anticancer activity against human CCRF-CEM cells assessed as cell viability at 12.5 uM after 24 hrs by MTT assay. In kind it is functional. The settings on record: read-out: Activity.
For assay [12], the system named is CCRF-CEM. In words: Anticancer activity against human CCRF-CEM cells assessed as cell viability at 25 uM after 24 hrs by MTT assay. In kind it is functional. The settings on record: read-out: Activity.
Assay [13] deals with CCRF-CEM. The experiment in a line: Anticancer activity against human CCRF-CEM cells assessed as cell viability at 50 uM after 24 hrs by MTT assay. In kind it is functional. The settings on record: read-out: Activity.
Assay [14] relates to CCRF-CEM. The experiment in a line: Anticancer activity against human CCRF-CEM cells assessed as cell viability at 100 uM after 24 hrs by MTT assay. In kind it is functional. The following applies: read-out: Activity.
The subject of assay [15] is CCRF-CEM. In words: Anticancer activity against human CCRF-CEM cells assessed as cell viability at 12.5 uM after 48 hrs by MTT assay. In kind it is functional. The following applies: read-out: Activity.
Assay [16] relates to CCRF-CEM. The experiment in a line: Anticancer activity against human CCRF-CEM cells assessed as cell viability at 25 uM after 48 hrs by MTT assay. In kind it is functional. The following applies: read-out: Activity.
Assay [17] relates to CCRF-CEM. The experiment in a line: Anticancer activity against human CCRF-CEM cells assessed as cell viability at 50 uM after 48 hrs by MTT assay. In kind it is functional. The following applies: read-out: Activity.
Assay [18] relates to CCRF-CEM. The experiment in a line: Anticancer activity against human CCRF-CEM cells assessed as cell viability at 100 uM after 48 hrs by MTT assay. The settings on record: read-out: Activity. The assay is classed as functional.

Chain of Casein kinase II subunit alpha (Homo sapiens) (P68400 whole entry, looked up): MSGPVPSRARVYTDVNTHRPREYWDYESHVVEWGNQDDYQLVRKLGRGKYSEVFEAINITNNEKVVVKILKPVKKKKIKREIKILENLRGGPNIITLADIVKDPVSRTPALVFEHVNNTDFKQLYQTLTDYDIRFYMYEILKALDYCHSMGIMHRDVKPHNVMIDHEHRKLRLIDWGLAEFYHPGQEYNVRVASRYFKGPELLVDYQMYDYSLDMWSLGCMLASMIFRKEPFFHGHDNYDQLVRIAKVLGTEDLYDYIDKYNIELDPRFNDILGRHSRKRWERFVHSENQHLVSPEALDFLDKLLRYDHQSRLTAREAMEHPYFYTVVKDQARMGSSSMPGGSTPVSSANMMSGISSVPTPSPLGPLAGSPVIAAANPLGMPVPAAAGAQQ

For the compound `OC(CCn1nc2c(Br)c(Br)c(Br)c(Br)c2n1)c1cccc(Br)c1` (configuration not stated), the figures for the Activity in [1] and in assay [2] were 96.6% and 43.4%, respectively. The viability at 12.5 µM turned out to be 81% in assay [3], 102% in assay [7], 102% in assay [11] and 118% in assay [15]. Also, the viability at 25 µM in [4] stood at 52%; in assay [8], 106%; in assay [12], 123%; in [16], 54%. The viability at 50 µM was determined as 14% in assay [5], 11% in assay [9], 54% in assay [13] and 0% in assay [17]. The viability at 100 µM in assay [6] is 1%; in [10], 0%; in assay [14], 0%; in [18] it was 0%.

On to `OC(CCn1nc2c(Br)c(Br)c(Br)c(Br)c2n1)c1ccc(Cl)cc1` (configuration not stated), for which the Activity in [1] came to 95.6%; in assay [2], 45.4%. The viability at 12.5 µM in assay [3] is 90%; in assay [7], 100%; in assay [11], 105%; in assay [15], 93%. In addition, the viability at 25 µM in [4] came to 96%; in assay [8], 92%; in [12], 106%; in assay [16] it was 69%. In addition, the viability at 50 µM in [5] amounted to 19%; in assay [9], 9%; in assay [13], 56%; in [17], 0%. Also, the viability at 100 µM in assay [6], in [10], in assay [14] and in assay [18] was 0% in each case.

On to `OC(CCn1nc2c(Br)c(Br)c(Br)c(Br)c2n1)c1ccccc1` (racemic), for which the values for the Activity in [1] and in assay [2] were 93% and 31.1%, respectively. Besides, the viability at 12.5 µM in assay [3] came to 115%; in assay [7] it was 113%; in assay [11], 122%; in assay [15], 89%. In addition, the viability at 25 µM worked out at 99% in assay [4], 105% in assay [8], 123% in assay [12] and 84% in [16]. Further, the viability at 50 µM in assay [5] worked out at 28%; in [9], 23%; in assay [13], 66%; in [17], 0%. Further, the viability at 100 µM in assay [6] came to 13%; in assay [10], 0%; in assay [14], 21%; in [18], 0%.

For `OC(CCn1nc2c(Br)c(Br)c(Br)c(Br)c2n1)c1ccc(Br)cc1` (configuration not stated), the Activity in assay [1] was determined as 97.4%; in [2], 33.5%. The viability at 12.5 µM in [3] amounted to 82%; in assay [7] it was 107%; in assay [11], 101%; in assay [15], 89%. Also, the viability at 25 µM is 59% in assay [4], 105% in [8], 109% in [12] and 69% in assay [16]. For the same compound, the viability at 50 µM was 10% in assay [5], 15% in [9], 58% in assay [13] and 0% in assay [17]. Moreover, the viability at 100 µM in [6], in assay [10], in assay [14] and in [18] was 0% each time.
